Measured values taken from US20200055871A1, “ACTIVATORS OF THE RETINOIC ACID INDUCIBLE GENE "RIG-I" PATHWAY AND METHODS OF USE THEREOF” (Kineta Immuno-Oncology LLC, priority 2018, published 2020).
Like-named read-outs stand apart in the source and are kept apart here.

What was measured:
[1] = system: IRF3 signaling pathway in THP1-Lucia™ ISG cells; test: THP1-Lucia ISG reporter assay: induction of IRF3-dependent gene expression (secreted luciferase); format: cell-based, human; conditions: Homo sapiens, THP1-Lucia ISG, read-out: fold increase of IRF3-dependent luciferase activity over background, THP1 ISG; for fold induction at 20 µM: 20 μM compound (*)
Protocol: The compounds were evaluated in the THP1-Lucia™ ISG (interferon stimulated genes) reporter assay to determine if the compounds activate the IRF3 signaling pathway. The THP1-Lucia™ cells (InvivoGen) express the secreted luciferase (Lucia) reporter gene under the control of an IRF-inducible promoter. The reporter cell line was developed from human monocytic leukemia THP-1 cells.
The promoter was comprised of five IFN-stimulated response elements (ISRE) fused to an ISG54 minimal promoter which is unresponsive to NF-kB or AP-1 pathways. […] The IRF3-deficient THP1-Lucia™ ISG IRF3−/−reporter cell line was generated by CRISPR technology from the parent THP1-Lucia™ ISG reporter cell line.
THP1-Lucia™ ISG cells and IRF3-deficient THP1-Lucia™ ISG IRF3−/−cells were differentiated with PMA (100 ng/ml) and stimulated with compounds at the indicated concentrations (5 to 20 μM), positive control, or not treated (background). Luciferase secretion was quantified using the QUANTI-Luc luciferase assay system (InvivoGen) 18 h after stimulation. Data are shown as fold increase luciferase activity over background in Table 7 and represent the IRF3-dependent ISG54 promoter activity by the THP1-Lucia™ ISG cells in response to compounds. […] The fold increase of compounds (10 μM, *20 μM, **5 μM) induced IRF3 dependent luciferase activity is indicated as follows: “≠” indicates less than 2.4 fold increase; “+” indicates a 2.4-4.9 fold increase; “++” indicates a 5-9.9 fold increase; “+++” indicates a 10-19 fold increase; “++++” indicates a 20-39 fold increase; “+++++” indicates greater than or equal to 40 fold increase.

[2] = system: murine CT26 colon carcinoma cells; test: RIG-I dependent CXCL10 secretion by CT26 cells (ELISA); format: cell-based; conditions: supernatant 24 h after stimulation
Protocol: (§1) The CT26 murine colon carcinoma cell line (ATCC) was used to evaluate the induction of CXCL10 secretion. CXCL10 is an important chemokine in tumor immune biology that recruits tumor-specific T cells to the tumor. To confirm that compound-mediated CXCL10 production was RIG-I specific, RIG-1 deficient CT2-RIG-I−/−cells were generated by Kineta Inc. using CRISPR technology.
(§2) CT26 cells were seeded at a density of 1×10^4 cells per well on a 96-well tissue culture plate in 100 μL of cell culture and cells were incubated at 37° C. and 5% CO2 for 24 hr. Next, CT26 cells were treated with compounds at the indicated concentrations. CXCL10 was quantified by ELISA from supernatants taken 24 h after compound stimulation by use of the CXCL10 Duo Set ELISA kit (Cat #DY466, R&D, Minneapolis, Minn., USA) according to the manufacturer's instructions.
(§3) CXCL10 secretion by CT26 cells in response to compounds (in an amount of 5 to 20 μM) of the present disclosure is shown in Table 8. The compound-induced CXCL10 production was RIG-I dependent, since none of the compounds mediated CXCL10 secretion in RIG-I deficient CT26 RIG-I−/−cells (about 0 pg/mL of CXCL10, or below the level of quantitation). The compounds (10 μM, *20 μM, **5 μM) are indicated in the table as follows: “≠” indicates less than 100 pg/mL; “+” indicates 100-199 pg/mL; “++” indicates 200-399 pg/mL; “+++” indicates 400-799 pg/mL; “++++” indicates 800 to 1599 pg/mL; “+++++” indicates greater than or equal to 1600 pg/ml.

[3] = system: RIG-I deficient CT26 RIG-I−/− cells; test: CXCL10 secretion by RIG-I deficient CT26 RIG-I−/− cells (ELISA); format: cell-based, murine; conditions: compound 5 to 20 μM, 24 h
Protocol: as §1, §2, §3

[4] = 10 μM compound, PMA-differentiated cells, 18 h after stimulation
[5] = PMA-differentiated cells, 18 h after stimulation

Row | Compound | fold induction at 10 µM [1, 4] | CXCL10 secretion, CT26 ([2]; 10 μM compound) | CXCL10 secretion, CT26 RIG-I−/− [3] | CXCL10 secretion, CT26 ([2]; 20 μM compound (*)) | fold induction at 20 µM [1, 5] | fold induction at 10 µM ([1]; 18 h)
1 | O=C(Nc1nc2ccc3scnc3c2s1)c1cc2ccccc2cc1OCCCN1CCOCC1 [Example 1, N-{3,10-dithia-5,12-diazatricyclo[7.3.0.0^2,6]dodeca-1,4,6,8,11-pentaen-4-yl}-3-[3-(morpholin-4-yl)propoxy]naphthalene-2-carboxamide] | 2.4 to 4.9 | ++++ (800 to 1599 pg/mL) | − |  |  | 
2 | COc1cc(OC)cc(C(=O)Nc2nc3ccc4sc(C)nc4c3s2)c1 [Example 2, 3,5-dimethoxy-N-{11-methyl-3,10-dithia-5,12-diazatricyclo[7.3.0.0^2,^6]dodeca-1,4,6,8,11-pentaen-4-yl}benzamide] | 5 to 9.9 |  | − | ++++* (800 to 1599 pg/mL) |  | 
3 | CCN(CC)S(=O)(=O)c1ccc(C(=O)Nc2nc3ccc4sc(C)nc4c3s2)cc1 [Example 3, 4-(diethylsulfamoyl)-N-{11-methyl-3,10-dithia-5,12-diazatricyclo[7.3.0.0^2,^6]dodeca-1,4,6,8,11-pentaen-4-yl}benzamide] |  |  | − | ++* (200-399 pg/mL) | 5 to 9.9 | 
4 | O=C(Nc1nc2ccc3scnc3c2s1)c1ccc2c(c1)OCO2 [Example 4, N-{3,10-dithia-5,12-diazatricyclo[7.3.0.0^2,^6]dodeca-1,4,6,8,11-pentaen-4-yl}-2H-1,3-benzodioxole-5-carboxamide] |  | +++ (400-799 pg/mL) | − |  |  | 10 to 19
5 | CCCCCOc1ccc(C(=O)Nc2nc3ccc4sc(C)nc4c3s2)cc1 [Example 5, N-{11-methyl-3,10-dithia-5,12-diazatricyclo[7.3.0.0^2,^6]dodeca-1,4,6,8,11-pentaen-4-yl}-4-(pentyloxy)benzamide] | 5 to 9.9 |  | − | +* (100-199 pg/mL) |  | 
6 | Cc1nc2c(ccc3nc(NC(=O)c4ccc(N(C)C)cc4)sc32)s1 [Example 6, 4-(dimethylamino)-N-{11-methyl-3,10-dithia-5,12-diazatricyclo[7.3.0.0^2,^6]dodeca-1,4,6,8,11-pentaen-4-yl}benzamide] | 10 to 19 | ++ (200-399 pg/mL) | − |  |  | 
7 | O=C(Nc1nc2ccc3scnc3c2s1)c1ccc(Cl)c(C(F)(F)F)c1 [Example 7, 4-chloro-N-{3,10-dithia-5,12-diazatricyclo[7.3.0.0^2,^6]dodeca-1,4,6,8,11-pentaen-4-yl}-3-(trifluoromethyl)benzamide] | 2.4 to 4.9 | ++++ (800 to 1599 pg/mL) | − |  |  | 
8 | O=C(Nc1nc2ccc3scnc3c2s1)c1cccc(C(F)(F)F)c1 [Example 8, N-{3,10-dithia-5,12-diazatricyclo[7.3.0.0^2,^6]dodeca-1,4,6,8,11-pentaen-4-yl}-3-(trifluoromethyl)benzamide] |  |  | − | +* (100-199 pg/mL) | 10 to 19 | 
9 | O=C(Nc1nc2ccc3scnc3c2s1)c1cccc([N+](=O)[O-])c1 [Example 9, N-{3,10-dithia-5,12-diazatricyclo [7.3.0.0^2,^6]dodeca-1,4,6,8,11-pentaen-4-yl}-3-nitrobenzamide] | 2.4 to 4.9 | +++ (400-799 pg/mL) | − |  |  | 
10 | O=C(Nc1nc2ccc3scnc3c2s1)c1cc2ccccc2s1 [Example 11, N-{3,10-dithia-5,12-diazatricyclo[7.3.0.0^2,^6]dodeca-1,4,6,8,11-pentaen-4-yl}-1-benzothiophene-2-carboxamide] | 2.4 to 4.9 | ++ (200-399 pg/mL) | − |  |  | 
11 | Cn1c(C(=O)Nc2cc3ccc4scnc4c3s2)cc2ccccc21 [Example 71, N-{5,12-dithia-3-azatricyclo[7.3.0.0^2,^6]dodeca-1,3,6,8,10-pentaen-11-yl}-1-methyl-1H-indole-2-carboxamide] |  | + (100-199 pg/mL) |  |  |  | 
